# Assay results taken from ChEMBL document CHEMBL1157539, “Thousands of chemical starting points for antimalarial lead identification” (Nature, 2010).
# Tested on: Plasmodium falciparum
# Test: GSK_TCMDC: Inhibition of Plasmodium falciparum 3D7 in whole erythrocytes, using parasite LDH activity as an index of growth.
# Format: functional, organism-based
# Settings: Plasmodium falciparum, 3D7
row,SMILES,XC50 [nM]
1,COc1ccc2c(c1)[nH]c1c(/C=C/c3ccc([N+](=O)[O-])cc3)nccc12,858
2,COc1ccccc1CNCC(O)c1cc(C(F)(F)F)ccc1C(F)(F)F (stereo not drawn),944
3,CCCCc1ccc(C(=O)Nc2ccc3nc(N4CCN(CC)CC4)cc(C)c3c2)cc1,905
4,CCN(CC)CCN(Cc1ccc(-c2ccc(C(F)(F)F)cc2)cc1)C(=O)Cn1c(CCC2CCCCC2)nc(=O)c2ccccc21,1390
5,CCN1CCC(N(Cc2ccc(-c3ccc(C(F)(F)F)cc3)cc2)C(=O)Cn2c(CCc3cccc(F)c3F)nc(=O)c3ccccc32)CC1,1060
6,Cc1ccc2c(=O)cc(CCc3cccc(F)c3F)n(CC(=O)N(Cc3ccc(-c4ccc(C(F)(F)F)cc4)cc3)C3CCN(C(C)C)CC3)c2n1,776
7,Cc1[nH]cc(Br)c(=O)c1-c1ccc(Oc2ccc(OC(F)(F)F)cc2)cc1,325
8,Cc1cccc2nc(-c3ccc(-c4cccc(CNCc5ccc(S(C)(=O)=O)cc5)c4)s3)[nH]c12,334
9,CC(C)Sc1ccc(Cl)cc1CON1C(=N)N=C(N)NC1(C)C,3.2
10,CS(=O)(=O)c1cccc(-c2cnc(N)c3cc(-c4ccc(F)cc4)ccc23)c1,903
11,CC1CN(c2ccc(C(=O)NCC3CC3)cc2NC(=O)OCc2ccccc2)CC(C)O1 (stereo not drawn),1300
12,CCCCN(CCCC)Cc1cc(Nc2ccnc3cc(Cl)ccc23)ccc1O,17.2
13,CCOCc1cn(CC(=O)c2ccc(-c3ccccc3)cc2)c(C)nc1=N,319
14,COc1cc(Nc2ccc3cc(S(=O)(=O)N4CCCCC4C)ccc3n2)cc(OC)c1OC (stereo not drawn),1240
15,COc1ccc(NC(=O)Nc2cccc(-c3cccc(-c4nc5cccc(C)c5[nH]4)c3)c2)cc1,400
16,COc1ccc(CCCON2C(=N)N=C(N)NC2(C)C)cc1,3.2
17,Cc1cc(NC2CCN(Cc3ccccc3)CC2)nc(NCCCCc2ccccc2)n1,383
18,CN1CCN(CCCN(Cc2csc(-c3ccc(CNCc4ccccc4)cc3)n2)S(=O)(=O)c2ccccc2)CC1,773
19,CC(=O)N[C@H](C(=O)Nc1cccc(-c2ccc(-c3nc4cccc(C)c4[nH]3)s2)c1)C(C)C,760
20,O=C(Nc1cccc(CN2CCCN(Cc3ncc[nH]3)CC2)c1)c1ccc(-c2ccccc2)cc1,654
21,O=c1[nH]ccc2nc(N[C@@H]3CCNC3)nc(Nc3cccc(S(=O)(=O)N4CCOCC4)c3)c12,1230
22,CC(C)(CN)c1nc(-c2ccc(Cl)c(O)c2)c(-c2ccnc(N)n2)[nH]1,981
23,CC1CCCC(C)N1C[C@@H](O)CNS(=O)(=O)c1cccc(C(F)(F)F)c1 (stereo partly drawn),692
24,Cc1ccc(Nc2ccnc3ccc(C(F)(F)F)cc23)cc1O,956
25,CS(=O)(=O)c1cccc(-c2cnc(N)c3cc(-c4ccc5c(c4)OCO5)ccc23)c1,1040

row,SMILES,XC50 [nM]
1,CCCOc1cc(OCCC)cc(-c2cc(=O)c3ccccc3[nH]2)c1,58.1
2,CCN1CCC(NCc2ccc(-c3ccc(Cl)cc3)cc2)CC1,1020
3,CS(=O)(=O)CCNCc1nc(-c2ccc3c(=O)[nH]cnc3c2)cs1,1010
4,COc1ccc2cc(-c3nc(-c4c(Cl)cccc4Cl)[nH]c3-c3ccnc(NCCC4CCCN4C)c3)ccc2c1 (stereo not drawn),1030
5,Cc1ccc2c(=NN=Cc3ccc(N(C)C)cc3)cc(C)[nH]c2c1,881
6,CC(C)(CNC(=O)/C=C/c1ccc(Cl)c(Cl)c1)CNc1cc(=O)c2ccccc2[nH]1,856
7,COc1ccc2nccc([C@@H](O)CN3C4CCC3CC(NCc3ccc5c(n3)NC(=O)CS5)C4)c2n1 (stereo partly drawn),934
8,O=C(NC1CC1)c1cnc(N2CCN(Cc3c(F)cccc3Cl)CC2)c(Cl)c1,905
9,CC(C)(C)c1ccc(CN2CCC(NC(=O)c3ccc(-c4cccc(C(F)(F)F)c4)s3)CC2)cc1,359
10,O=c1cc(NCCCNC(c2ccccc2)c2ccc(Cl)c(Cl)c2)[nH]c2ccccc12 (stereo not drawn),1140
11,COc1ccc(CNCc2ccc(-c3ccc(-c4nc5cccc(C)c5[nH]4)s3)cc2)cc1,180
12,NC(=O)CCC(NC(=O)CNC(=O)Nc1cccc(C(F)(F)F)c1)C(=O)O (stereo not drawn),803
13,CCCCCCN1CCCN(Cc2ccc(C(=O)Nc3cccc(CC)c3)cc2)CC1,670
14,CC(C)(C)OC(=O)N1CCC(C2CCN(C(=O)OC(C)(C)C)CC2)CC1,1160
15,O=C(C=Cc1ccc(Cl)c(Cl)c1)NCCCCCN1CCCC(CCCNS(=O)(=O)c2cccc3cccnc23)C1 (stereo not drawn),1000
16,O=C(NC1CCC(CCN2CCc3ccc(-c4cnccn4)cc3CC2)CC1)c1cccc(-n2cccn2)c1 (stereo not drawn),899
17,CC(C)CNCc1ccc(-c2ccccc2CNC2CCN(Cc3ccccc3)CC2)cc1,565
18,O=C1COc2ccc(CNC3CCC(O)(CCc4ccnc5cc6c(cc45)OCCO6)CC3)nc2N1 (stereo not drawn),931
19,CC(C)NCC(=O)Nc1cccc(C(=O)Nc2cccc(C(F)(F)F)c2)c1,273
20,CC(C)NCc1cccc(-c2ccc(NC(=O)c3ccc(C#N)cc3)cc2)c1,825
21,N#Cc1ccc2c(c1)CN(C1CCC(NC(=O)/C=C/c3cc(C(F)(F)F)cc(C(F)(F)F)c3)CC1)CCC2 (stereo not drawn),1390
22,CN1CCN(c2cc3c(cc2Cl)CCN3C(=O)Cc2ccc(NC(=O)Nc3cccc4ccccc34)cc2)CC1,973
23,CC(CCCC(=O)Nc1ccc(CC(C)NCCc2cccc(Cl)c2)cc1)NCCc1cccc(Cl)c1 (stereo not drawn),625
24,CCCc1ccc(NC(=O)c2cccc(CN3CCCN(Cc4cccc(C#N)c4)CC3)c2)cc1,976
25,CC(C)(CNC(=O)[C@@H]1CCCN(CCOc2ccc(Cl)cc2)C1)c1nc(-c2ccc(Cl)c(O)c2)c(-c2ccncc2)[nH]1,881

row,SMILES,XC50 [nM]
1,CC1Cc2ccccc2N1S(=O)(=O)c1cc(OCC(F)(F)F)ccc1OCC(F)(F)F (stereo not drawn),645
2,CC1(C)N=C(N)N=C(N)N1OCCCOc1cc(Cl)c(Cl)cc1Cl,3.2
3,CCCCCCCNC(=O)NCC1CCCN(CCCCCNC(=O)/C=C/c2ccc(Cl)c(Cl)c2)C1 (stereo not drawn),1040
4,COc1ccc(-c2cc(Nc3nc(-c4cccc(Cl)c4)nc4ccccc34)ccn2)cc1,727
5,O=C(NCc1cccc(C(F)(F)F)c1)c1ccc(CNC(=O)c2ccc(O)c(-c3ccc(Cl)c(Cl)c3)c2)cc1,843
6,CCn1c(Cc2ccccc2)nnc1SCC(=O)N1c2ccccc2Sc2ccccc21,588
7,CCc1cn2c3c(cc(C(=O)N[C@@H](Cc4ccccc4)[C@H](O)CNC(C)(C)CCCC(C)C)cc13)N(C)S(=O)(=O)C2,240
8,FC(F)(F)c1cccc2c(NN=Cc3ccccc3)ccnc12,624
9,COc1cccc([C@@H](CC(=O)Nc2cc(C(F)(F)F)ccc2OC)Nc2ccc(C#N)c3ccccc23)c1,993
10,O=C(NC1CCCCC1)N(Cc1ccc(-c2cccc(CNCc3ccc4c(c3)OCO4)c2)cc1)C1CCN(Cc2ccccc2)CC1,688
11,O=C(N[C@H]1CCN(Cc2ccc(OC3CCN(Cc4ccccc4)CC3)c(Cl)c2)C1)c1ccc(Cl)c(Cl)c1,814
12,O=C(Nc1cc(Oc2ccc(O)cc2)cc([N+](=O)[O-])c1)c1cc(-c2ccc(F)cc2)no1,955
13,CCCCCCCN1CC[C@@H](CCCc2ccnc3ccc(OCC4CCCNC4)cc23)[C@@H](CC)C1 (stereo partly drawn),625
14,CC1(C)NC(N)=NC(=N)N1OCCCO,221
15,CCCCN(CCCC)CCCCCCNc1c2ccccc2nc2ccccc12,776
16,COc1ccc(CNCc2ccccc2)cc1-c1ccc(S(=O)(=O)NCCN2CCCC2)c(C)c1,856
17,COC(=O)c1ccc(CC(C)NCC(O)c2cccc(Br)c2)cc1 (stereo not drawn),694
18,Nc1c2c(nc3ccc(Oc4ccc(Br)cc4Br)cc13)CCCC2,864
19,Nc1nc(N)c2c(Oc3ccc(Cl)c(Cl)c3)cccc2n1,871
20,CN(C)CCCNc1ncnc2c1[nH]c1ccc(F)cc12,732
21,Cc1ccc(CCNCC(O)c2cccc(C(F)(F)F)c2)cc1 (stereo not drawn),868
22,FC(F)(F)c1cnc(Sc2nnc(-c3ccncc3)o2)c(Cl)c1,272
23,Cc1cccc2nc(-c3ccc(-c4cccc(CNC5CCN(C)CC5)c4)s3)[nH]c12,182
24,Clc1ccc2c(NCCc3ccccc3)ccnc2c1,488
25,CCCCCCCc1ccc(-c2c(C)[nH]c(C)c(Cl)c2=O)cn1,361

row,SMILES,XC50 [nM]
1,COc1cccc(CN2CCC(CCOC(c3ccccc3)c3ccc(Cl)cc3)CC2)c1O (stereo not drawn),713
2,O=C(/C=C/c1ccc(Cl)c(Cl)c1)N1CCC(CN2C3CCC2CC(c2c[nH]c4ccccc24)C3)CC1 (stereo not drawn),737
3,CC(C)c1ccc(NC(=O)NC2CCN(CCCCCN(C)C(=O)/C=C/c3ccc(Cl)c(Cl)c3)C2)cc1 (stereo not drawn),830
4,Cc1cccc2nc(-c3ccc(-c4cccc(CNCc5ccccc5)c4)s3)[nH]c12,741
5,O=C(NCCN1CCCCC1)N1CCCN(c2ncnc3cc(-c4ccccc4)sc23)CC1,231
6,CC(C)N1CCN(C(CN2CCN(CCCOc3ccc(-c4ccccc4)cc3)CC2)c2ccc(F)cc2)CC1 (stereo not drawn),678
7,Cc1nc(N)nc(N)c1OCCCCOc1ccccc1,53.5
8,O=C(c1ccc(Cl)cc1)N1CCOC(CCN2CCC(c3ccccc3)CC2)(c2ccc(Cl)c(Cl)c2)C1 (stereo not drawn),238
9,Nc1cccc(CNCc2cccc(-c3ccc(-c4nc5cc(C(F)(F)F)ccc5[nH]4)cc3)c2)c1,360
10,O=C(Nc1ccc(OC2CCN(Cc3ccsc3)C2)c(Cl)c1)c1ccc2ncccc2c1 (stereo not drawn),966
11,OC1=C2C(=Nc3ccccc3SC2c2cccs2)c2ccccc21 (stereo not drawn),229
12,O=C(Nc1cccc(-c2cccc(-c3nc4cc(C(F)(F)F)ccc4[nH]3)c2)c1)c1ccc(=O)[nH]n1,656
13,COc1ccc(-c2nc3cccnc3n2CC(=O)Nc2cc(Cl)c(Cl)cc2Cl)c(OC)c1,722
14,Fc1ccccc1-c1cc(Nc2ccncc2)nc(-c2cccnc2)n1,258
15,CCN(CCCN1CCCCC1)c1nccc(Nc2ccc(Cl)cc2)n1,1190
16,COc1cccc(CCc2c(CCNCCCCCCNCCc3ccccc3)ccc(OC)c2OC)c1,721
17,COc1cc(Cc2cnc(N)nc2N)ccc1OCc1ccc(-c2ccccc2C#N)cc1,940
18,COc1ccc(OC)c(C=CC(=O)NC2CCC(CN3CCC(c4c[nH]c5ccccc45)CC3)CC2)c1 (stereo not drawn),653
19,Cc1cc(C2CCN(CCCCNC(=O)c3ccc(-c4ccc(C(F)(F)F)cc4)cc3)CC2)c(C)cc1OCCO,885
20,CN1CCCC1CCCOC(=O)c1ccc(N)cc1 (stereo not drawn),916
21,c1cc(CNCC2CCCO2)cc(-c2csc(-c3nc4ccccc4[nH]3)c2)c1 (stereo not drawn),1040
22,COc1cc2c(cc1OC)CN(CCc1ccc(NC(=O)c3cc4cc(Cl)ccc4[nH]3)cc1)CC2,1020
23,CCC(CC)N1C(=O)C(c2ccccc2)(c2ccccc2)N=C1N,805
